This note sets out measurements from patent US11034650B2, “Compounds useful for treating a Mannheimia haemolytica or Histophilus somni infection” (Intervet Inc., priority 2016, dated 2021).

≈ marks a conversion by molar mass, not a printed value.

What all share (assay type): cell-based
The test system of assay [1] is Mannheimia haemolytica MH 6357 (M7/2, reference strain, cattle infection strain). The experiment in a line: MIC, broth-microdilution (CLSI VET01-A4), strain MH 6357. Conditions: Mannheimia haemolytica strain MH 6357, broth-microdilution; unit assumed. The method in brief: (§1)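 Growth inhibition is scored visually on a doubling dilution series. The reported MIC corresponds to the lowest concentration free of turbidity, with results assessed under CLSI VET01-S3.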
In general terms: In broth dilution the organism is exposed to a series of concentrations in liquid medium.

In assay [2] the test system is Mannheimia haemolytica MH 6374 (ATCC 33396, reference strain). The experiment in a line: MIC, broth-microdilution (CLSI VET01-A4), strain MH 6374. The following applies: Mannheimia haemolytica strain MH 6374, broth-microdilution; unit assumed. In short, it runs like this:
as §1

Assay [3] concerns Mannheimia haemolytica MH 10720 (154, BRD field isolate). Briefly: MIC, broth-microdilution (CLSI VET01-A4), strain MH 10720. The following applies: Mannheimia haemolytica strain MH 10720, broth-microdilution; unit assumed. The method in brief: as §1
Assay [4] concerns Mannheimia haemolytica MH 12587 (1071, BRD field isolate, macrolide-resistance: erm+, E+). Briefly: MIC, broth-microdilution (CLSI VET01-A4), strain MH 12587. The following applies: Mannheimia haemolytica strain MH 12587, broth-microdilution; unit assumed. In short, it runs like this:
as §1

Assay [5] relates to Mannheimia haemolytica MH 13065 (XB0446-6003.9, BRD field isolate). Briefly: MIC, broth-microdilution (CLSI VET01-A4), strain MH 13065. Conditions: Mannheimia haemolytica strain MH 13065, broth-microdilution; unit assumed. The method in brief:
as §1

The test system of assay [6] is Mannheimia haemolytica MH 13093 (XB0472-6014.1, BRD field isolate). The experiment in a line: MIC, broth-microdilution (CLSI VET01-A4), strain MH 13093. The following applies: Mannheimia haemolytica strain MH 13093, broth-microdilution; unit assumed. The method in brief: as §1
In assay [7] the test system is Pasteurella multocida PM 6267 (P 2225 (L386), reference strain, mouse infection strain). Briefly: MIC, broth-microdilution (CLSI VET01-A4), strain PM 6267. Conditions: Pasteurella multocida strain PM 6267, broth-microdilution; unit assumed. The method in brief: as §1
The test system of assay [8] is Pasteurella multocida PM 6391 (ATCC 43137, reference strain). Briefly: MIC, broth-microdilution (CLSI VET01-A4), strain PM 6391. Conditions: Pasteurella multocida strain PM 6391, broth-microdilution; unit assumed. The method in brief:
as §1

Assay [9] concerns Pasteurella multocida PM 10775 (080130003051, BRD field isolate). Briefly: MIC, broth-microdilution (CLSI VET01-A4), strain PM 10775. Conditions: Pasteurella multocida strain PM 10775, broth-microdilution; unit assumed. The method in brief:
as §1

Assay [10] has as its system Pasteurella multocida PM 12080 (IV102277-0093, BRD field isolate). The experiment in a line: MIC, broth-microdilution (CLSI VET01-A4), strain PM 12080. The following applies: Pasteurella multocida strain PM 12080, broth-microdilution; unit assumed. In short, it runs like this:
as §1

As to `COCCNCc1ccc(C#Cc2ccc(C(=O)N[C@H](C(=O)NO)C(C)(C)O)cc2)cc1` [Compound 221], in assay [1], the MIC MH 6357 is 0.8 µg/mL (≈ 1.82 µM). In addition, in assay [2], the MIC MH 6374 came to 0.8 µg/mL (≈ 1.82 µM). The compound also came in with an MIC MH 10720 in assay [3] of at most 0.1 µg/mL. For the same compound, the MIC MH 12587 in assay [4] was 3.1 µg/mL (≈ 7.05 µM). Further, in assay [5], the MIC MH 13065 came to 1.6 µg/mL (≈ 3.64 µM). This compound displayed an MIC MH 13093 in [6] of 1.6 µg/mL (≈ 3.64 µM). The compound also had an MIC PM 6267 in assay [7] of at most 0.1 µg/mL. Also, the MIC PM 6391 in assay [8] is 0.4 µg/mL (≈ 0.91 µM). Also, the MIC PM 10775 in assay [9] is at most 0.1 µg/mL. Besides, the MIC PM 12080 in [10] was found to be 0.4 µg/mL (≈ 0.91 µM).
For `CC(C)(O)[C@H](NC(=O)c1ccc(C#Cc2ccc(CN3CCOCC3)cc2)cc1)C(=O)NO` [Compound 222], in assay [1], the MIC MH 6357 was 0.8 µg/mL (≈ 1.77 µM). In assay [2], this compound had an MIC MH 6374 of 1.6 µg/mL (≈ 3.54 µM). The compound also showed an MIC MH 10720 in [3] of 0.2 µg/mL (≈ 0.443 µM). The compound further displayed an MIC MH 12587 in assay [4] of 1.6 µg/mL (≈ 3.54 µM). Further, the MIC MH 13065 in assay [5] stood at 1.6 µg/mL (≈ 3.54 µM). The same compound displayed an MIC MH 13093 in assay [6] of 1.6 µg/mL (≈ 3.54 µM). This compound came in with an MIC PM 6267 in assay [7] of at most 0.1 µg/mL. This compound also had an MIC PM 6391 in [8] of at most 0.1 µg/mL. Moreover, the MIC PM 10775 in assay [9] is at most 0.1 µg/mL. In assay [10], this compound had an MIC PM 12080 of 0.2 µg/mL (≈ 0.443 µM).
With `CC(C)(O)[C@H](NC(=O)c1ccc(C#Cc2ccc(CNCc3ccccc3)cc2)cc1)C(=O)NO` [Compound 223], in assay [1], the MIC MH 6357 is 0.8 µg/mL (≈ 1.7 µM). In addition, the MIC MH 6374 in [2] was found to be 0.4 µg/mL (≈ 0.848 µM). This compound showed an MIC MH 10720 in [3] of at most 0.1 µg/mL. This compound also gave an MIC MH 12587 in assay [4] of 0.8 µg/mL (≈ 1.7 µM). Further, the MIC MH 13065 in assay [5] was 0.4 µg/mL (≈ 0.848 µM). Also, the MIC MH 13093 in assay [6] worked out at 0.4 µg/mL (≈ 0.848 µM). The compound also came in with an MIC PM 6267 in assay [7] of at most 0.1 µg/mL. The compound also returned an MIC PM 6391 in assay [8] of at most 0.1 µg/mL. The compound also yielded an MIC PM 10775 in [9] of at most 0.1 µg/mL. The MIC PM 12080 in [10] is at most 0.1 µg/mL.
In the case of `COc1ccc(CNCc2ccc(C#Cc3ccc(C(=O)N[C@H](C(=O)NO)C(C)(C)O)cc3)cc2)cc1` [Compound 224], the MIC MH 6357 in assay [1] was 0.8 µg/mL (≈ 1.59 µM). Moreover, the MIC MH 6374 in assay [2] was 0.8 µg/mL (≈ 1.59 µM). In assay [3], this compound had an MIC MH 10720 of at most 0.1 µg/mL. The compound further gave an MIC MH 12587 in assay [4] of 1.6 µg/mL (≈ 3.19 µM). For the same compound, the MIC MH 13065 in assay [5] came out at 0.8 µg/mL (≈ 1.59 µM). In addition, in assay [6], the MIC MH 13093 is 0.8 µg/mL (≈ 1.59 µM). The same compound gave an MIC PM 6267 in [7] of at most 0.1 µg/mL. The same compound gave an MIC PM 6391 in assay [8] of 0.4 µg/mL (≈ 0.797 µM). The same compound displayed an MIC PM 10775 in [9] of at most 0.1 µg/mL. The MIC PM 12080 in [10] is at most 0.1 µg/mL.
Turning to `CC(C)(O)[C@H](NC(=O)c1ccc(C#Cc2ccc(CNC3CCC3)cc2)cc1)C(=O)NO` [Compound 226], the MIC MH 6357 in [1] was found to be 3.1 µg/mL (≈ 7.12 µM). Moreover, in assay [2], the MIC MH 6374 stood at 3.1 µg/mL (≈ 7.12 µM). This compound also returned an MIC MH 10720 in [3] of 0.8 µg/mL (≈ 1.84 µM). Also, in assay [4], the MIC MH 12587 was 12.5 µg/mL (≈ 28.7 µM). This compound displayed an MIC MH 13065 in [5] of 3.1 µg/mL (≈ 7.12 µM). The compound further displayed an MIC MH 13093 in assay [6] of 6.3 µg/mL (≈ 14.5 µM). For the same compound, the MIC PM 6267 in assay [7] is at most 0.1 µg/mL. Further, the MIC PM 6391 in assay [8] is 0.4 µg/mL (≈ 0.918 µM). Besides, in assay [9], the MIC PM 10775 was at most 0.1 µg/mL. Moreover, the MIC PM 12080 in assay [10] is 0.4 µg/mL (≈ 0.918 µM).
Compound `CC(C)(O)[C@H](NC(=O)c1ccc(C#Cc2ccc(CNC3CCCC3)cc2)cc1)C(=O)NO` [Compound 227] gave an MIC MH 6357 in [1] of 12.5 µg/mL (≈ 27.8 µM). This compound also showed an MIC MH 6374 in assay [2] of 12.5 µg/mL (≈ 27.8 µM). Further, the MIC MH 10720 in assay [3] stood at 1.6 µg/mL (≈ 3.56 µM). The MIC MH 12587 in assay [4] turned out to be 25 µg/mL (≈ 55.6 µM). For the same compound, the MIC MH 13065 in [5] stood at 6.3 µg/mL (≈ 14 µM). Moreover, the MIC MH 13093 in [6] was determined as 12.5 µg/mL (≈ 27.8 µM). Moreover, the MIC PM 6267 in assay [7] stood at 0.4 µg/mL (≈ 0.89 µM). The compound further displayed an MIC PM 6391 in [8] of 0.8 µg/mL (≈ 1.78 µM). In assay [9], this compound returned an MIC PM 10775 of 0.2 µg/mL (≈ 0.445 µM). Also, the MIC PM 12080 in [10] was 0.8 µg/mL (≈ 1.78 µM).
`CC(C)(O)[C@H](NC(=O)c1ccc(C#Cc2ccc(CNCc3cccnc3)cc2)cc1)C(=O)NO` [Compound 228] registered an MIC MH 6357 in assay [1] of 0.8 µg/mL (≈ 1.69 µM). In [2], this compound displayed an MIC MH 6374 of 0.4 µg/mL (≈ 0.846 µM). Besides, the MIC MH 10720 in [3] was at most 0.1 µg/mL. The MIC MH 12587 in assay [4] was determined as 1.6 µg/mL (≈ 3.39 µM). Also, the MIC MH 13065 in assay [5] amounted to 0.4 µg/mL (≈ 0.846 µM). Also, the MIC MH 13093 in [6] was determined as 0.8 µg/mL (≈ 1.69 µM). This compound yielded an MIC PM 6267 in assay [7] of at most 0.1 µg/mL. For the same compound, the MIC PM 6391 in assay [8] was at most 0.1 µg/mL. The MIC PM 10775 in [9] was at most 0.1 µg/mL. This compound also had an MIC PM 12080 in assay [10] of at most 0.1 µg/mL.
With `CC(C)(O)[C@H](NC(=O)c1ccc(C#Cc2ccc(CNCc3ccnc(Cl)c3)cc2)cc1)C(=O)NO` [Compound 229], in assay [1], the MIC MH 6357 was determined as 0.4 µg/mL (≈ 0.789 µM). The compound further displayed an MIC MH 6374 in [2] of 0.4 µg/mL (≈ 0.789 µM). The compound also returned an MIC MH 10720 in assay [3] of at most 0.1 µg/mL. Besides, the MIC MH 12587 in assay [4] stood at 0.4 µg/mL (≈ 0.789 µM). The compound further yielded an MIC MH 13065 in assay [5] of 0.2 µg/mL (≈ 0.394 µM). The same compound gave an MIC MH 13093 in [6] of 0.4 µg/mL (≈ 0.789 µM). In [7], this compound yielded an MIC PM 6267 of at most 0.1 µg/mL. Further, the MIC PM 6391 in assay [8] is at most 0.1 µg/mL. For the same compound, the MIC PM 10775 in assay [9] was at most 0.1 µg/mL. This compound showed an MIC PM 12080 in assay [10] of at most 0.1 µg/mL.
